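Test compounds were applied to cells in 96-well plates for 48 hours at 5 doses. At the GI50, growth is halved. TGI: total growth inhibition.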 *1 amine or outer side, *2 acyl side, *3 side chain or, on linkers, in order; H or OH if unused. Where a SMILES comes first, the peptide text is derived from it. Bridges are numbered along the chain shown (N, C = ends). [ ]: non-standard residue; d: D form. The star is where a group is joined. X19 = O=C([C@H](N[*:1])c1ccc(O[C@H]2O[C@@H](CO)[C@@H](O)[C@@H](O)[C@H]2O[C@@H]2O[C@H](CO)[C@H](O)[C@H](O)[C@@H]2O)cc1)[*:2]; X18 = NC(=O)[C@@H](O[*:3])[C@H](N[*:1])C(=O)[*:2]; X20 = O=C([C@H](N[*:1])c1ccc(O)c(Cl)c1)[*:2]; d(aThr) = C[C@@H](O)[C@@H](N)C(=O)O; dHpg = N[C@@H](C(=O)O)c1ccc(O)cc1; X17 = CC(C)C/C=C/C=C/C(=O)*; dOrn = NCCC[C@@H](N)C(=O)O
Experiments:
Assay in all cases: NCI-60 cell line screen, 48 h
A498 renal = test system: A498 renal
HT29 colon = test system: HT29 colon
MDA-MB-435 = test system: MDA-MB-435
OVCAR-4 ovarian = test system: OVCAR-4 ovarian
PC-3 prostate = test system: PC-3 prostate
SK-MEL-2 melanoma = test system: SK-MEL-2 melanoma
SK-MEL-5 melanoma = test system: SK-MEL-5 melanoma
SN12C renal = test system: SN12C renal
SNB-19 CNS = test system: SNB-19 CNS
SNB-75 CNS = test system: SNB-75 CNS

SMILES | GI50 (A498 renal) [µM] | TGI (A498 renal) [µM] | GI50 (HT29 colon) [µM] | TGI (HT29 colon) [µM] | GI50 (MDA-MB-435) [µM] | TGI (MDA-MB-435) [µM] | GI50 (OVCAR-4 ovarian) [µM] | TGI (OVCAR-4 ovarian) [µM] | GI50 (PC-3 prostate) [µM] | TGI (PC-3 prostate) [µM] | GI50 (SK-MEL-2 melanoma) [µM] | TGI (SK-MEL-2 melanoma) [µM] | GI50 (SK-MEL-5 melanoma) [µM] | TGI (SK-MEL-5 melanoma) [µM] | GI50 (SN12C renal) [µM] | TGI (SN12C renal) [µM] | GI50 (SNB-19 CNS) [µM] | TGI (SNB-19 CNS) [µM] | GI50 (SNB-75 CNS) [µM] | TGI (SNB-75 CNS) [µM]
O=C(O[C@H]1CN[C@H](C#Cc2cc3ncnc(Nc4ccc(OCc5cccc(F)c5)c(Cl)c4)c3s2)C1)N1CCOCC1 | 1.76 | 8.21 | 5.7 | 11.4 | 9.85 | > 25 | 10.3 | > 25 | 4.93 | > 25 | 7.4 | 18.7 | 8.55 | > 25 | 5.66 | > 25 | > 25 | > 25 | 7.73 | > 25
CC(C)C/C=C/C=C/C(=O)N[C@@H](CC(N)=O)C(=O)N[C@@H]1C(=O)N[C@H](c2ccc(O)cc2)C(=O)N[C@H](CCCN)C(=O)N[C@H]([C@@H](C)O)C(=O)N[C@H](c2ccc(O)cc2)C(=O)N[C@H](c2ccc(O)cc2)C(=O)N[C@H]([C@H](C)O)C(=O)N[C@H](Cc2ccccc2)C(=O)N[C@H](CCCN)C(=O)N[C@H](c2ccc(O[C@H]3O[C@@H](CO)[C@@H](O)[C@@H](O)[C@H]3O[C@@H]3O[C@H](CO)[C@H](O)[C@H](O)[C@@H]3O)cc2)C(=O)N[C@H]([C@H](C)O)C(=O)N[C@H](c2ccc(O)cc2)C(=O)NCC(=O)N[C@H](CC(C)C)C(=O)N[C@H](C)C(=O)N[C@H](c2ccc(O)c(Cl)c2)C(=O)O[C@@H]1C(N)=O (X17-N[X18][dHpg][dOrn][d(aThr)][dHpg][dHpg][dT][dF][dOrn][X19][dT][dHpg]G[dL][dA][X20]; ester 2-C) | 80.9 | > 100 | 33.2 | > 100 | 26 | 72.8 | 39.2 | > 100 | 44 | > 100 | > 100 | > 100 | 22.1 | 44.6 | > 100 | > 100 | 23.9 | 55.4 | 29.4 | 79.8
C#Cc1cccc(Nc2ncnc3ccc(-c4cnc(Cl)c(NS(C)(=O)=O)c4)cc23)c1 | 0.0334 | 0.254 | 0.404 | – | 0.383 | 2.34 | 0.762 | 8.33 | 0.297 | 2.82 | 0.296 | 1.62 | 0.243 | 0.704 | 0.292 | > 54 | 0.374 | 5.7 | 0.0101 | 0.125
COc1cc([C@@H]2c3cc4c(cc3[C@H](OC(C)=O)[C@H]3COC(=O)[C@H]23)OCO4)cc(OC)c1OC | 0.0139 | 0.065 | 0.0335 | 17.9 | 0.0192 | 0.0533 | 0.0826 | > 100 | 0.0371 | > 100 | 27.6 | > 100 | 0.0229 | 0.0658 | 0.0457 | > 100 | 0.0436 | > 100 | 8.43 | > 100
ClC1(c2ccccc2)c2ccc(Br)cc2-c2cc(Br)ccc21 | – | 32.8 | – | 26 | – | 27.4 | – | 27.3 | – | 31.3 | – | 32.5 | – | 29.1 | – | 34.9 | – | 31.3 | – | –
CCn1cc(C(=O)N/N=C/c2cccc(F)c2)c(=O)c2cc(F)c(N3CCNC(C)C3)c(F)c21 (stereo not given) | 1.28 | 6.36 | 1.55 | 2.98 | 1.71 | 3.12 | 2.02 | 4.22 | 1.62 | 3.09 | 1.97 | 3.86 | 1.75 | 3.19 | 1.62 | 3.11 | 1.7 | 3.15 | 1.52 | 2.87
O=C1CCC2=C3C4CCCCC4C(=O)C4CCCC(OC2C1)C34 (stereo not given) | 31.8 | > 63.1 | 8.28 | > 100 | 0.516 | 2.08 | 1.79 | > 25.1 | 2.57 | > 29.6 | 1.38 | 4.14 | 0.729 | 2.35 | 0.849 | > 24.7 | 2.59 | > 100 | 5.23 | > 43.8
COc1cc(C)[nH]c(=O)c1CN1CCc2c(Cl)cc([C@H](OC)C3COC3)c(Cl)c2C1=O | > 100 | > 100 | > 100 | > 100 | > 100 | > 100 | > 100 | > 100 | > 100 | > 100 | > 100 | > 100 | > 100 | > 100 | > 100 | > 100 | > 100 | > 100 | > 100 | > 100
CN(C)c1ccc2cc(-c3cc4c(oc3=O)-c3ccccc3OC4O)c(=O)oc2c1 (stereo not given) | 5.67 | 23.5 | 5.73 | 21.8 | 3.67 | 15.9 | 0.55 | > 25 | 3.85 | 15.1 | 3.03 | 7.53 | 0.752 | 4.67 | 6.2 | 19.9 | 3.56 | 12.2 | 5.96 | 24
Cc1cccc2c1NC(=O)[C@@]21[C@H](C(=O)c2ccccc2)[C@]2(C(=O)Nc3ccccc32)[C@H]2CCCN21 | > 100 | > 100 | 37.3 | > 100 | 94.7 | > 100 | 16.4 | 40.7 | 36.4 | > 100 | 50.5 | > 100 | 84.7 | > 100 | – | – | 19.2 | > 100 | 15 | 63.4
COC1CC2C=CC3C4OC2(/C(C)=C/C(C)C(C(C)O)OC1=O)C3C(O)C(C)C4OC(=O)c1ccc[nH]1 (stereo not given) | – | > 100 | – | > 100 | – | > 100 | – | > 100 | – | > 100 | – | > 100 | – | > 100 | – | > 100 | – | > 100 | – | –
COc1ccccc1N1CCN(C(=O)c2ccc(NS(=O)(=O)c3cccc4cccnc34)cc2)CC1 | > 47.6 | > 100 | > 100 | > 100 | > 100 | > 100 | > 100 | > 100 | > 100 | > 100 | > 100 | > 100 | > 100 | > 100 | > 100 | > 100 | 29.5 | > 85.5 | 10.1 | > 53.7
O=c1ccccc(-c2ccc(-c3ccco3)cc2)c1O | 3.46 | 25.9 | 1.7 | 65.6 | 1.85 | > 100 | 0.363 | 60.2 | 1.46 | 31.8 | 10.5 | 44.2 | 0.935 | 8.44 | 1.24 | 16.6 | 1.04 | 22.9 | 0.994 | > 100
Cc1ccc2c(N/N=C\c3ccco3)cc(C)nc2n1 | 11 | 23.9 | 2.7 | 8.95 | 2.63 | 10.7 | 2.99 | 9.19 | 6.26 | 22.5 | 3.05 | 8.77 | 10.1 | 22.3 | 4.68 | 16.5 | 8.15 | 24 | 11.4 | 26.4
O=C1/C=C/[C@@H](O)[C@@H]2C[C@@H](O)C[C@H]2/C=C/CCC[C@H](CO)O1 | 1.31 | > 100 | 0.942 | 12.4 | 2.91 | > 100 | 2.07 | > 100 | 2.5 | > 100 | 2.39 | 5.95 | 0.705 | 2.08 | 4.24 | > 100 | 3.09 | > 100 | 2.37 | > 100
C=C1SC(=Nc2ccccc2Cl)N(C(=O)c2sc3ccccc3c2Cl)C1(C)C | 4.04 | > 57.5 | 14.2 | 51.7 | 17.3 | 97 | 5.54 | > 100 | 4.68 | > 100 | 8.83 | 31.9 | 6.65 | 25.2 | 12.6 | > 100 | 3.64 | > 100 | 6.41 | 97.4
CN(C)Cc1cccc(CN(C)C)[c]1[Sn]([Br])([c]1ccccc1)[c]1ccccc1 | 21.7 | 47.6 | 8.18 | 71.8 | 17.1 | 41.6 | – | – | 17.1 | 96.9 | – | – | 11 | 24.7 | 16.7 | 35.6 | 18.7 | 48.4 | 21.7 | 66.2
N=C1C(c2nc3ccccc3s2)=C(O)CN1c1ccc(Cl)cc1Cl | 12.5 | 50.7 | 16.4 | > 100 | 16.5 | > 100 | 18.3 | 70.2 | 11.5 | 29 | 27.6 | 96.6 | 19.2 | > 100 | 13.5 | 32.4 | 26.3 | 80.9 | 13.1 | > 100
O=S(=O)(NCCCNc1cc(-c2cn(-c3ccccc3)nc2-c2cccc(O)c2)ccn1)c1cccc2ccccc12 | 1.09 | 6.62 | 0.508 | 1.71 | 3.48 | 37.4 | 3.06 | > 100 | 2.87 | 44.9 | 2.45 | 6.25 | 1.57 | 3.41 | 4.8 | > 100 | 5.1 | > 100 | 2.35 | > 100
CC1OC(O[C@H]2/C=C/C=C/C=C/C=C/C=C/C=C/C=C/[C@H](C)[C@@H](O)[C@@H](C)[C@H](C)OC(=O)C[C@H](O)C[C@H](O)CC[C@@H](O)[C@H](O)C[C@H](O)C[C@]3(O)C[C@H](O)[C@@H](C(=O)O)[C@H](C2)O3)C(O)C(N)C1O (stereo not given in full) | 10.4 | 25 | – | 56.4 | 7.94 | 19.3 | – | 51.2 | – | 31.8 | – | 59.3 | 25.8 | 59 | 2.01 | 9.15 | 37.8 | 50.2 | 32.7 | 61.7
O=C1c2cccc3cc([N+](=O)[O-])cc(c23)C(=O)N1CCN1CCCC1 | 0.319 | 1.65 | 0.593 | 7.6 | 1.31 | 2.99 | 1.48 | 11.7 | 1.58 | 12.5 | 1.88 | 4.45 | 0.293 | 0.943 | 0.228 | 1.11 | 0.35 | 2.42 | 0.388 | 2.27
COc1ccc(-c2csc(NC(=O)N3CCN(c4cc5c(cc4F)c(=O)c(C(=O)O)cn5C4CC4)CC3)n2)cc1 | 2.59 | 15.6 | – | – | 2.54 | > 100 | – | – | 2.98 | > 100 | 2.42 | 7.1 | – | – | 1.49 | > 100 | 3.29 | > 100 | 2.47 | 17.4
O=C1CC2C(=O)C1C(C(=O)O)C2C(=O)O (stereo not given) | – | > 100 | – | > 100 | – | > 100 | – | > 100 | – | > 100 | – | > 100 | – | > 100 | – | > 100 | – | > 100 | – | –
